Laboratory results from patent US20070060639A1, “Compositions and methods for intranasal delivery of tricyclic cannabinoids” (University of Kentucky, priority 2005, published 2007).
Where two headings read alike, the source gives them in different places.

What was measured:
[1] = rat; for F: F = (AUCIN × DoseIV)/(AUCIV × DoseIN); for concentration at 0 minutes / concentration at 0.5 minutes / concentration at 5 minutes / concentration at 15 minutes / concentration at 30 minutes / concentration at 60 minutes / concentration at 120 minutes / concentration at 160 minutes / concentration at 240 minutes / concentration at 300 minutes / concentration at 360 minutes / concentration at 420 minutes / concentration at 480 minutes: Mean plasma concentration of THC
[2] = intranasally at 1.14-1.33 mg/kg, rat model, period from 15 to 120 minutes after administration; cited from earlier work
[3] = male, Sprague-Dawley, plasma, inhaled or intranasal, 9.84 mg/kg
[4] = male, Sprague-Dawley, plasma, inhaled or intranasal, 9.91 mg/kg
[5] = male, Sprague-Dawley, plasma, iv, 0.99 mg/kg
[6] = male, Sprague-Dawley, plasma, iv, 1 mg/kg, Intravenous (1 mg/kg), propylene glycol, n = 3, rat
[7] = male, Sprague-Dawley, plasma, other: intranasal, 10 mg/kg, Intranasal (10 mg/kg), 90:10 propylene glycol/ethanol, n = 5, rat
[8] = male, Sprague-Dawley, plasma, other: intranasal, 10 mg/kg, Intranasal (10 mg/kg), propylene glycol, n = 3, rat

Q: With `CCCCCc1cc(O)c2c(c1)OC(C)(C)[C@@H]1CCC(C)=C[C@@H]21` [THC, delta-9-tetrahydrocannabinol] as the molecule, how does the F ([1]; Intranasal (IN), 90:10 propylene glycol/ethanol, 9.91 mg/kg) read?
A: Its F is 0.138.

Q: And the F ([1]; Intranasal (IN), propylene glycol, 9.84 mg/kg)?
A: The F was 0.136.

Q: What about the F ([1]; Intravenous (IV), propylene glycol, 0.99 mg/kg) of the same molecule?
A: The F was 1.

Q: What about the AUC [1, 3] of the same molecule?
A: The AUC was 428 ng·h/mL.

Q: What about the Cmax [1, 3] of the same molecule?
A: Its Cmax is 55 ng/mL.

Q: And the Tmax [1, 3]?
A: Its Tmax is 3 h.

Q: What about the AUC [1, 4] of the same molecule?
A: Its AUC is 434 ng·h/mL.

Q: And the Cmax [1, 4]?
A: The Cmax was 75 ng/mL.

Q: And the Tmax [1, 4]?
A: The Tmax was 2 h.

Q: What about the AUC [1, 5] of the same molecule?
A: Its AUC is 314 ng·h/mL.

Q: And the Cmax [1, 5]?
A: Its Cmax is 693 ng/mL.

Q: And the Tmax [1, 5]?
A: The Tmax was 0.0083 h.

Q: And the concentration at 0 minutes [1, 6]?
A: The concentration at 0 minutes was 0 ng/mL.

Q: And the concentration at 0.5 minutes [1, 6]?
A: The concentration at 0.5 minutes was 693 ng/mL.

Q: What about the concentration at 5 minutes [1, 6] of the same molecule?
A: The concentration at 5 minutes was 136 ng/mL.

Q: What about the concentration at 15 minutes [1, 6] of the same molecule?
A: Its concentration at 15 minutes is 73 ng/mL.

Q: What about the concentration at 30 minutes [1, 6] of the same molecule?
A: The concentration at 30 minutes was 48 ng/mL.

Q: And the concentration at 60 minutes [1, 6]?
A: The concentration at 60 minutes was 34 ng/mL.

Q: And the concentration at 120 minutes [1, 6]?
A: The concentration at 120 minutes was 24 ng/mL.

Q: What about the concentration at 160 minutes [1, 6] of the same molecule?
A: The concentration at 160 minutes was 23 ng/mL.

Q: And the concentration at 240 minutes [1, 6]?
A: The concentration at 240 minutes was 21 ng/mL.

Q: And the concentration at 300 minutes [1, 6]?
A: The concentration at 300 minutes was 18 ng/mL.

Q: And the concentration at 360 minutes [1, 6]?
A: The concentration at 360 minutes was 22 ng/mL.

Q: What about the concentration at 420 minutes [1, 6] of the same molecule?
A: The concentration at 420 minutes was 25 ng/mL.

Q: What about the concentration at 480 minutes [1, 6] of the same molecule?
A: The concentration at 480 minutes was 12 ng/mL.

Q: What about the bioavailability ([1]; male, Sprague-Dawley, plasma, other: intranasal, 10 mg/kg) of the same molecule?
A: The bioavailability was about 14%.

Q: What about the concentration at 0 minutes [1, 7] of the same molecule?
A: The concentration at 0 minutes was 0 ng/mL.

Q: And the concentration at 0.5 minutes [1, 7]?
A: Its concentration at 0.5 minutes is 0 ng/mL.

Q: And the concentration at 5 minutes [1, 7]?
A: The concentration at 5 minutes was 0 ng/mL.

Q: And the concentration at 15 minutes [1, 7]?
A: Its concentration at 15 minutes is 24 ng/mL.

Q: What about the concentration at 30 minutes [1, 7] of the same molecule?
A: Its concentration at 30 minutes is 43 ng/mL.

Q: And the concentration at 60 minutes [1, 7]?
A: The concentration at 60 minutes was 59 ng/mL.

Q: What about the concentration at 120 minutes [1, 7] of the same molecule?
A: Its concentration at 120 minutes is 75 ng/mL.

Q: And the concentration at 160 minutes [1, 7]?
A: Its concentration at 160 minutes is 54 ng/mL.

Q: And the concentration at 240 minutes [1, 7]?
A: Its concentration at 240 minutes is 24 ng/mL.

Q: And the concentration at 300 minutes [1, 7]?
A: Its concentration at 300 minutes is 20 ng/mL.

Q: And the concentration at 360 minutes [1, 7]?
A: The concentration at 360 minutes was 19 ng/mL.

Q: And the concentration at 420 minutes [1, 7]?
A: The concentration at 420 minutes was 16 ng/mL.

Q: And the concentration at 480 minutes [1, 7]?
A: The concentration at 480 minutes was 11 ng/mL.

Q: What about the concentration at 0 minutes [1, 8] of the same molecule?
A: The concentration at 0 minutes was 0 ng/mL.

Q: And the concentration at 0.5 minutes [1, 8]?
A: The concentration at 0.5 minutes was 0 ng/mL.

Q: And the concentration at 5 minutes [1, 8]?
A: The concentration at 5 minutes was 0 ng/mL.

Q: And the concentration at 15 minutes [1, 8]?
A: Its concentration at 15 minutes is 3 ng/mL.

Q: And the concentration at 30 minutes [1, 8]?
A: Its concentration at 30 minutes is 13 ng/mL.

Q: What about the concentration at 60 minutes [1, 8] of the same molecule?
A: The concentration at 60 minutes was 26 ng/mL.

Q: What about the concentration at 120 minutes [1, 8] of the same molecule?
A: Its concentration at 120 minutes is 38 ng/mL.

Q: What about the concentration at 160 minutes [1, 8] of the same molecule?
A: The concentration at 160 minutes was 36 ng/mL.

Q: What about the concentration at 240 minutes [1, 8] of the same molecule?
A: Its concentration at 240 minutes is 51 ng/mL.

Q: And the concentration at 300 minutes [1, 8]?
A: Its concentration at 300 minutes is 19 ng/mL.

Q: What about the concentration at 360 minutes [1, 8] of the same molecule?
A: Its concentration at 360 minutes is 17 ng/mL.

Q: And the concentration at 420 minutes [1, 8]?
A: The concentration at 420 minutes was 16 ng/mL.

Q: What about the concentration at 480 minutes [1, 8] of the same molecule?
A: The concentration at 480 minutes was 16 ng/mL.

Q: And the analgesic response [2]?
A: The analgesic response was “an analgesic response was observed”.
